According to ChEMBL document CHEMBL1909046, “DrugMatrix in vitro pharmacology data”:

Assays:
[1] = target: T1, Receptor-type tyrosine-protein phosphatase C (Homo sapiens, UniProt P08575); design: species or system Escherichia coli;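 further: inhibition of CD45 enzyme activity measured using DiFMUP as substrate; in other assays of this panel Not Active means under 50% inhibition at 10 µM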
T1 sequence (P08575 whole entry): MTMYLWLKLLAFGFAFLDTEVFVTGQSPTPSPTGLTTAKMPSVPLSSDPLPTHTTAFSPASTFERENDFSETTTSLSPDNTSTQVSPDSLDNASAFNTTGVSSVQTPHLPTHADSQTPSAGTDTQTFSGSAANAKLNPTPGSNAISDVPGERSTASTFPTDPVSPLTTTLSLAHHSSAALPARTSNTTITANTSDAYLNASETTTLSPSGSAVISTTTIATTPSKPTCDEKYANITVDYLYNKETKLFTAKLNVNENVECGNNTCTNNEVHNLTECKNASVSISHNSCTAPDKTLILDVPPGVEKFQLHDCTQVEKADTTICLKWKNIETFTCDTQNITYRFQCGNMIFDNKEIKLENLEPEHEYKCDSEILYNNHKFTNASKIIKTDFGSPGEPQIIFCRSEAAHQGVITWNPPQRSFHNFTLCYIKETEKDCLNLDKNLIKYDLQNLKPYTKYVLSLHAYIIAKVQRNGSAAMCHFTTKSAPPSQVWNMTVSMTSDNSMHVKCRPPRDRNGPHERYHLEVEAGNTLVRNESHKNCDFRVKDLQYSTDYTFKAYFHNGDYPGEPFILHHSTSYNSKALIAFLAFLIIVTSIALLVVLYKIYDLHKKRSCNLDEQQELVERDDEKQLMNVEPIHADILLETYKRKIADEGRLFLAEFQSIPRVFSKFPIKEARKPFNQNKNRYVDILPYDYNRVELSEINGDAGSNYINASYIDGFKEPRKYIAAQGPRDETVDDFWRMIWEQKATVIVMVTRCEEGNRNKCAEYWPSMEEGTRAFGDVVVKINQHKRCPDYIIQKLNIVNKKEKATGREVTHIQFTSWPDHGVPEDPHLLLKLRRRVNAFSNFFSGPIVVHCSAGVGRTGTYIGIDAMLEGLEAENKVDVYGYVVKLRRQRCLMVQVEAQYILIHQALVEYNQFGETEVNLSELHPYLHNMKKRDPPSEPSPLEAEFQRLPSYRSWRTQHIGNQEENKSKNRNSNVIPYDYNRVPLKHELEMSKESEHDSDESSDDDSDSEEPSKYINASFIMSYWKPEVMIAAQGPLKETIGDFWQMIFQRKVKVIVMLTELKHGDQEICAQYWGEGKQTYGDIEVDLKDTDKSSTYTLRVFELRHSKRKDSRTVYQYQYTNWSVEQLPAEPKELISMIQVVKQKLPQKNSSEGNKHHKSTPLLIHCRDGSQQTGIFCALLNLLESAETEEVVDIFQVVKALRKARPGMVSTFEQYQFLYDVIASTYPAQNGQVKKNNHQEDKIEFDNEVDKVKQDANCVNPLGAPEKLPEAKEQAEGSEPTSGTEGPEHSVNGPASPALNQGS

[2] = target: T2, Neuropeptide Y receptor type 2 (Homo sapiens, UniProt P49146); format: cell membranes, KAN-TS, Membrane; details: kan-ts; further: in other assays of this panel Not Active means under 50% inhibition at 10 µM
T2 sequence (P49146 whole entry): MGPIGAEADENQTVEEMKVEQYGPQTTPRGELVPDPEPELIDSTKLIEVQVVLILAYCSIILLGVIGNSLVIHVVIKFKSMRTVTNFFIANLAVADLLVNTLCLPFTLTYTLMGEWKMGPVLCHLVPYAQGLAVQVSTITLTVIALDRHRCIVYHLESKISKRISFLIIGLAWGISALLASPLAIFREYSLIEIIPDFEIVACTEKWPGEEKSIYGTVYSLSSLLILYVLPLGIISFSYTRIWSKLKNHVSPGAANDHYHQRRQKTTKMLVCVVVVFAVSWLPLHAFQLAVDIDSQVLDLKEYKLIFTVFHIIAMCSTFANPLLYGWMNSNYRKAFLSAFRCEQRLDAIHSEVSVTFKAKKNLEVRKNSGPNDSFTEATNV

[3] = DRUGMATRIX: Tumor Necrosis Factor (TNF), Non-Selective radioligand binding (ligand: [125I] TNF-alpha); format: cell membranes, Membrane; details: u-937; Not Active = under 50% inhibition at 10 µM
Cytochrome P450 2E1 = Cytochrome P450 2E1 (Homo sapiens, UniProt P05181); details: bti-tn-5b1-4; further: in other assays of this panel Not Active means under 50% inhibition at 10 µM
Cytochrome P450 2E1, sequence (P05181 whole entry): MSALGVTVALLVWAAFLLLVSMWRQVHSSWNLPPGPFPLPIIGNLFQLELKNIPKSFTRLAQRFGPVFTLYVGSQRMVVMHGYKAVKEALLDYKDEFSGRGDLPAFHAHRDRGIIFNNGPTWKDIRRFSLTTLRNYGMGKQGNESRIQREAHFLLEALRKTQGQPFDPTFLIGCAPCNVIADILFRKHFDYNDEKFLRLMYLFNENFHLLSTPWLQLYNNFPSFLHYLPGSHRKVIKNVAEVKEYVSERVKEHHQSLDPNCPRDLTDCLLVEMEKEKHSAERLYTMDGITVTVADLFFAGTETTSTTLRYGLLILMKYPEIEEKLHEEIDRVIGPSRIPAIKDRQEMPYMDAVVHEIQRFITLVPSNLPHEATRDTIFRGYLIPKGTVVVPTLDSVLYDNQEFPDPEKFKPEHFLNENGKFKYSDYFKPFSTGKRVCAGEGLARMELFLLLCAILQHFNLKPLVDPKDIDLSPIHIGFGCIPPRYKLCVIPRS

Vasopressin V1a receptor = Vasopressin V1a receptor (Homo sapiens, UniProt P37288); format: cell membranes, Membrane; details: hek293; further: in other assays of this panel Not Active means under 50% inhibition at 10 µM
Vasopressin V1a receptor, sequence (P37288 whole entry): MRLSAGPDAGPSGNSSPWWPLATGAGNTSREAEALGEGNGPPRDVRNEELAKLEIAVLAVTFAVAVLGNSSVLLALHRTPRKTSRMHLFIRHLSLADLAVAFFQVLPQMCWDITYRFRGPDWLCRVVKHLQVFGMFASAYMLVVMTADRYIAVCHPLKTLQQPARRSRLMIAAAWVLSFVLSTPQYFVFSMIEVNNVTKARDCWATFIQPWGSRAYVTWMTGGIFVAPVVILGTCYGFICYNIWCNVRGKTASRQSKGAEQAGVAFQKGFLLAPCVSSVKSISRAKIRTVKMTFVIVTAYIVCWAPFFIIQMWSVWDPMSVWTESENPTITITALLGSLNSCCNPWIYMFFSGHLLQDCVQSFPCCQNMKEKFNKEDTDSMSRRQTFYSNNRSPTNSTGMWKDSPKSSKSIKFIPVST

[4] = target: Delta-type opioid receptor (Homo sapiens, UniProt P41143); format: cell membranes, Membrane; details: hek293; further: in other assays of this panel Not Active means under 50% inhibition at 10 µM
Delta-type opioid receptor, sequence (P41143 whole entry): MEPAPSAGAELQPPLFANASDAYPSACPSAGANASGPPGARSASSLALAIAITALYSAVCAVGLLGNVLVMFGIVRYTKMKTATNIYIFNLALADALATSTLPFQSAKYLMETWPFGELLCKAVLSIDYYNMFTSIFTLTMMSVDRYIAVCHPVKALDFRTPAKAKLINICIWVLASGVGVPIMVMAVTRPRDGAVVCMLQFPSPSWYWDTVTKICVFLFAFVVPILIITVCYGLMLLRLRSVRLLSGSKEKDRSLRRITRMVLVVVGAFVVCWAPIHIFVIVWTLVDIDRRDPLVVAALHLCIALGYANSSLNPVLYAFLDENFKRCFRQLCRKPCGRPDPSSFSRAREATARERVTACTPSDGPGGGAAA

[5] = DRUGMATRIX: Phorbol Ester radioligand binding (ligand: [3H] PDBu); format: cell membranes, Mus musculus, ICR, Brain, Membrane; details: Not Active = under 50% inhibition at 10 µM
[6] = DRUGMATRIX: Phosphodiesterase PDE4 enzyme inhibition (substrate: [3H]cAMP + cAMP); details: u-937; Not Active = under 50% inhibition at 10 µM
[7] = target: T3, C-X-C chemokine receptor type 1 (Homo sapiens, UniProt P25024); further: in other assays of this panel Not Active means under 50% inhibition at 10 µM
T3 sequence (P25024 whole entry): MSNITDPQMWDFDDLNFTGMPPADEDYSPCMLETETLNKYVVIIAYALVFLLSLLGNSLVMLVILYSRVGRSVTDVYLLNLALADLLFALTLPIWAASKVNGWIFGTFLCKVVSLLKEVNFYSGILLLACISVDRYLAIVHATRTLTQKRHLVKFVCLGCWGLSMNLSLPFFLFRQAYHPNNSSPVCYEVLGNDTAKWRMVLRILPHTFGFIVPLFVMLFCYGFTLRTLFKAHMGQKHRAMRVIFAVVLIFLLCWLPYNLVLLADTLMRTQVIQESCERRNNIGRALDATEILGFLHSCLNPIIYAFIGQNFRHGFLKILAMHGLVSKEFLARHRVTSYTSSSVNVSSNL

O=c1cnn([C@@H]2O[C@H](CO)[C@@H](O)[C@H]2O)c(=O)[nH]1 [6-AZAURIDINE]
Not Active: IC50 [1] | IC50 [2] | IC50 [3] | Ki [3] | IC50 (Cytochrome P450 2E1) | Ki (Cytochrome P450 2E1) | IC50 (Vasopressin V1a receptor) | IC50 [4] | IC50 [5] | Ki [5] | IC50 [6] | Ki [6] | IC50 [7]

CC[C@H](C)[C@H]1O[C@]2(C=C[C@@H]1C)C[C@@H]1C[C@@H](C/C=C(\C)[C@@H](O[C@H]3C[C@H](OC)[C@@H](O[C@H]4C[C@H](OC)[C@@H](O)[C@H](C)O4)[C@H](C)O3)[C@@H](C)/C=C/C=C3\CO[C@@H]4[C@H](O)C(C)=C[C@@H](C(=O)O1)[C@]34O)O2.CO[C@H]1C[C@H](O[C@H]2[C@H](C)O[C@@H](O[C@@H]3/C(C)=C/C[C@@H]4C[C@@H](C[C@]5(C=C[C@H](C)[C@@H](C(C)C)O5)O4)OC(=O)[C@@H]4C=C(C)[C@@H](O)[C@H]5OC/C(=C\C=C\[C@@H]3C)[C@]54O)C[C@@H]2OC)O[C@@H](C)[C@@H]1O [ABAMECTIN]
Not Active: IC50 [1] | IC50 [2] | IC50 [3] | Ki [3] | IC50 (Cytochrome P450 2E1) | Ki (Cytochrome P450 2E1) | IC50 (Vasopressin V1a receptor) | IC50 [4] | IC50 [5] | Ki [5] | IC50 [6] | Ki [6] | IC50 [7]

NCCCC(O)(P(=O)(O)O)P(=O)(O)O [ALENDRONIC ACID]
Not Active: IC50 [1] | IC50 [2] | IC50 [3] | Ki [3] | IC50 (Cytochrome P450 2E1) | Ki (Cytochrome P450 2E1) | IC50 (Vasopressin V1a receptor) | IC50 [4] | IC50 [5] | Ki [5] | IC50 [6] | Ki [6] | IC50 [7]

Cc1nnc2n1-c1ccc(Cl)cc1C(c1ccccc1)=NC2 [ALPRAZOLAM]
Not Active: IC50 [1] | IC50 [2] | IC50 [3] | Ki [3] | IC50 (Cytochrome P450 2E1) | Ki (Cytochrome P450 2E1) | IC50 (Vasopressin V1a receptor) | IC50 [4] | IC50 [5] | Ki [5] | IC50 [6] | Ki [6] | IC50 [7]

Cn1c(=O)c2[nH]cnc2n(C)c1=O.Cn1c(=O)c2[nH]cnc2n(C)c1=O.NCCN [AMINOPHYLLINE]
Not Active: IC50 [1] | IC50 [2] | IC50 [3] | Ki [3] | IC50 (Cytochrome P450 2E1) | Ki (Cytochrome P450 2E1) | IC50 (Vasopressin V1a receptor) | IC50 [4] | IC50 [5] | Ki [5] | IC50 [6] | Ki [6] | IC50 [7]

CCC1(CCC(C)C)C(=O)NC(=O)NC1=O [AMOBARBITAL]
Not Active: IC50 [1] | IC50 [2] | IC50 [3] | Ki [3] | IC50 (Cytochrome P450 2E1) | Ki (Cytochrome P450 2E1) | IC50 (Vasopressin V1a receptor) | IC50 [4] | IC50 [5] | Ki [5] | IC50 [6] | Ki [6] | IC50 [7]

CC1(C)S[C@@H]2[C@H](NC(=O)[C@H](N)c3ccccc3)C(=O)N2[C@H]1C(=O)O [AMPICILLIN]
Not Active: IC50 [1] | IC50 [2] | IC50 [3] | Ki [3] | IC50 (Cytochrome P450 2E1) | Ki (Cytochrome P450 2E1) | IC50 (Vasopressin V1a receptor) | IC50 [4] | IC50 [5] | Ki [5] | IC50 [6] | Ki [6] | IC50 [7]

COc1ccc(C2C(=O)c3ccccc3C2=O)cc1 [ANISINDIONE]
Not Active: IC50 [1] | IC50 [2] | IC50 [3] | Ki [3] | IC50 (Cytochrome P450 2E1) | Ki (Cytochrome P450 2E1) | IC50 (Vasopressin V1a receptor) | IC50 [4] | IC50 [5] | Ki [5] | IC50 [6] | Ki [6] | IC50 [7]

O=C1O[C@H]([C@@H](O)CO)C(O)=C1O [ASCORBIC ACID]
Not Active: IC50 [1] | IC50 [2] | IC50 [3] | Ki [3] | IC50 (Cytochrome P450 2E1) | Ki (Cytochrome P450 2E1) | IC50 (Vasopressin V1a receptor) | IC50 [4] | IC50 [5] | Ki [5] | IC50 [6] | Ki [6] | IC50 [7]

CN1[C@@H]2CC[C@H]1C[C@@H](OC(=O)C(CO)c1ccccc1)C2 (stereo not given in full) [ATROPINE]
Not Active: IC50 [1] | IC50 [2] | IC50 [3] | Ki [3] | IC50 (Cytochrome P450 2E1) | Ki (Cytochrome P450 2E1) | IC50 (Vasopressin V1a receptor) | IC50 [4] | IC50 [5] | Ki [5] | IC50 [6] | Ki [6] | IC50 [7]
